# Assay results reported in BindingDB's records for doi:10.1002/cbic.201600636 (The University of Sydney, 2017).
# Legend:
# [1] = biological target: Histone deacetylase 1 (Homo sapiens, UniProt Q13547); assay: Fluorometric Activity Assay
# Procedure: A FLUOR DE LYS fluorometric activity assay kit (HDAC source: HeLa cell nuclear extract) and a FLUOR DE LYS HDAC1 fluorometric drug discovery assay kit (HDAC source: human recombinant HDAC1) were purchased from Enzo Life Sciences (Farmingdale, NY). HDAC inhibition assay was performed according to the instruction manuals. All samples were dissolved in dimethyl sulfoxide, except for 1 and 2, which were dissolved in the assay buffers provided. All assays were performed in triplicate, and errors were calculated as standard deviation.
# [2] = biological target: Lipoxygenase (Solanum tuberosum, UniProt O49150); assay: Colorimetric 5-LO Assay
# Lipoxygenase, sequence (O49150 whole entry): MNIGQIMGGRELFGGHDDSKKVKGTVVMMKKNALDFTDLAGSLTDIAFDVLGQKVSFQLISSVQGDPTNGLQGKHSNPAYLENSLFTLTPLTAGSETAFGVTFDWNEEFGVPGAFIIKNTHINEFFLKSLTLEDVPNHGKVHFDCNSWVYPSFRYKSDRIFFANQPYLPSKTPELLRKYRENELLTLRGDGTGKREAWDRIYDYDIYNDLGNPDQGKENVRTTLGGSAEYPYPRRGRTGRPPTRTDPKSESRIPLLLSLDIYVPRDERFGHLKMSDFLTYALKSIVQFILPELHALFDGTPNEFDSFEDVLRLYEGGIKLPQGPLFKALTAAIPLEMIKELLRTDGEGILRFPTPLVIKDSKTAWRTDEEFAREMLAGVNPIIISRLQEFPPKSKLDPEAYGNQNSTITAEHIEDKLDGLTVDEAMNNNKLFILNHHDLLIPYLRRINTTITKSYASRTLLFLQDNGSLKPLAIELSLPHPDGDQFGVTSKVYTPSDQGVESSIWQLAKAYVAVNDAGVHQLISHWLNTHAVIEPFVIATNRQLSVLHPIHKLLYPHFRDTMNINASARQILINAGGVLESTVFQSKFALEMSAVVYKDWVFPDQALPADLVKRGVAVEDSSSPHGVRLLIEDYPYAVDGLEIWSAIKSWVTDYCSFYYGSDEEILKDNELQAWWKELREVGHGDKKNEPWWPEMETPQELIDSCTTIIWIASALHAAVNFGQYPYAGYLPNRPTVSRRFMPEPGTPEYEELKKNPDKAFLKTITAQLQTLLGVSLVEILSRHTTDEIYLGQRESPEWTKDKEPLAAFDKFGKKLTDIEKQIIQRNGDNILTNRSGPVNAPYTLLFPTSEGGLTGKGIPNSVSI
# Procedure: A colorimetric 5-LO assay kit (Lipoxygenase Inhibitor Screening Assay Kit) and potato 5-LO isolate were purchased from Cayman Chemicals (Ann Arbor, MI). 5-LO inhibition assay was performed according to the instruction manuals. All samples were dissolved in dimethyl sulfoxide, except for 1 and 2, which were dissolved in the assay buffers provided. All assays were performed in triplicate, and errors were calculated as standard deviation.
# Histone deacetylase 1, sequence (Q13547 whole entry): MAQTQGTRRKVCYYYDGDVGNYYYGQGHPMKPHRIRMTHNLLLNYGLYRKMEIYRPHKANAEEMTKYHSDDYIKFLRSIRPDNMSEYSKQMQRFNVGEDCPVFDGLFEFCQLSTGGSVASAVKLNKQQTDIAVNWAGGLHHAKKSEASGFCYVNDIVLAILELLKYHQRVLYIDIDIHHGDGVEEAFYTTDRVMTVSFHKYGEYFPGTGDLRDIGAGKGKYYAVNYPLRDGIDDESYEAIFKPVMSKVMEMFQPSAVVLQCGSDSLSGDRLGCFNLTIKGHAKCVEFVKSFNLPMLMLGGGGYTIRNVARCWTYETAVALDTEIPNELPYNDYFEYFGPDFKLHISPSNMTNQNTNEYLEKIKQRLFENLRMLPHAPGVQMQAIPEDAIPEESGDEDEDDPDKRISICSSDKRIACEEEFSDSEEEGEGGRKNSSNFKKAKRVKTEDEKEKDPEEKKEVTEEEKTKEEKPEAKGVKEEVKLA
SMILES,IC50 [1] [µM],IC50 [2] [µM]
"CC(=O)N(O)CCCCCNC(=O)CCC(=O)N(O)CCCCCNC(=O)CCC(=O)N(O)CCCCCN1C(=O)c2cccc3cccc(c23)C1=O [BIQD-substituted compound, S1]",258,–
"CC(=O)N(O)CCCCCNC(=O)CCC(=O)N(O)CCCCCN1C(=O)c2cccc3cccc(c23)C1=O [BIQD-substituted compound, S5]",314,2340
CC(=O)N(O)C/C=C/c1cccc(Oc2ccccc2)c1 [N-(3-phenoxycinnamyl)acetohydroxamic acid],–,17.1
"CC(=O)N(O)CCCCCN1C(=O)c2cccc3cccc(c23)C1=O [BIQD-substituted compound, S2]",172,58.9
"O=C(CCCCCN1C(=O)c2cccc3cccc(c23)C1=O)NO [6-(1,3-Dioxo-1H,3H-benzo[de]isoquinolin-2-yl)-hexanoic acid hydroxyamide]",–,212
